Bounds are passed on as bounds.

For test [1], the system named is Bacteria. Put plainly: Inhibition of bacterial VIM-2 assessed as substrate hydrolysis at 50 uM using imipenem as substrate by spectrophotometric analysis relative to control.
Test [2] relates to Bacteria. Put plainly: Inhibition of bacterial IMP-1 assessed as substrate hydrolysis at 50 uM using imipenem as substrate by spectrophotometric analysis relative to control.
In test [3] the target is Metallo-beta-lactamase type 2 (Bacteria) (UniProt C7C422). Put plainly: Inhibition of bacterial NDM-1 assessed as substrate hydrolysis at 50 uM using imipenem as substrate by spectrophotometric analysis relative to control.
Sequence of Metallo-beta-lactamase type 2 (Bacteria) (C7C422 whole entry): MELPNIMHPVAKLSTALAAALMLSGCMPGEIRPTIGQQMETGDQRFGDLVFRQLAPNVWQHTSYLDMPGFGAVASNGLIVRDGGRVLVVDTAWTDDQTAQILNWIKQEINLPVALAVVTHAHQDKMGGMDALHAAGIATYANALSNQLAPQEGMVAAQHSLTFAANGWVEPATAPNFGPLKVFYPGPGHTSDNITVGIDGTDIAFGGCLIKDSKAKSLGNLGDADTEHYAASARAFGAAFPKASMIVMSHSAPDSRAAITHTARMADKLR

One may read the inhibition as the change of the read-out against control, counted positive when it falls. In the case of `O=C1/C(=C/c2ccc(Cl)cc2)Oc2c(O)cccc21`, the inhibition in test [1], in test [2] and in test [3] was less than 10% throughout.

Consider `COc1ccc(/C=C2\Oc3cc(O)cc(O)c3C2=O)cc1`, for which the results for the inhibition in test [1], in test [2] and in test [3] were less than 10%, 20% and 38%, respectively.

In the case of `O=C1/C(=C/c2ccc(C(F)(F)F)cc2)Oc2c1ccc(O)c2O`, the values for the inhibition in test [1], in test [2] and in test [3] were less than 10%, 17% and less than 10%, respectively.

For `CCCCOc1ccc(/C=C2\Oc3cc(O)cc(O)c3C2=O)c(O)c1`, the inhibition in test [3] stood at 46%.

In the case of `O=C1/C(=C/c2ccc(F)cc2)Oc2c(O)cccc21`, the inhibition in test [1], in test [2] and in test [3] was less than 10% each time.

On to `Cn1cc(/C=C2\Oc3cc(O)cc(O)c3C2=O)c2ccccc21`, for which the results for the inhibition in test [1], in test [2] and in test [3] were less than 10%, 28% and 46%, respectively.

As for `CN1CCN(c2ccc(/C=C3\Oc4cccc(O)c4C3=O)cc2)CC1`, the figures for the inhibition in test [1], in test [2] and in test [3] were less than 10%, 12% and less than 10%, respectively.

As to `COc1ccc(/C=C2\Oc3cc(O)cc(O)c3C2=O)c(OC)c1`, the inhibition in test [1] is less than 10%; in test [2], 43.6%; in test [3] it was 52%.

With `COc1ccc(/C=C2\Oc3c(O)cccc3C2=O)cc1`, the inhibition is less than 10% in test [1], less than 10% in test [2] and 20% in test [3].

For the compound `COc1cc(/C=C2\Oc3ccccc3C2=O)ccc1O`, the inhibition in test [1], in test [2] and in test [3] was less than 10% each time.

As to `O=C1/C(=C/c2ccc(O)cc2)Oc2cc(O)cc(O)c21`, the inhibition in test [1] is less than 10%; in test [2], 12.4%; in test [3], less than 10%.

As for `O=C1/C(=C/c2ccc(O)cc2O)Oc2c1ccc(O)c2O`, the inhibition in test [1] is less than 10%; in test [2], 24%; in test [3], 20%.

In the case of `CC(C)(C)CCn1cc(/C=C2\Oc3cc(O)cc(O)c3C2=O)c2ccccc21`, the inhibition in test [1] is less than 10%; in test [2] it was 28%; in test [3], 11.2%.

On to `C=CCn1cc(/C=C2\Oc3cc(O)cc(O)c3C2=O)c2ccccc21`, for which the inhibition in test [1] was less than 10%; in test [2], 16%; in test [3], less than 10%.

`Cc1cccc(Cn2cc(/C=C3\Oc4cc(O)cc(O)c4C3=O)c3ccccc32)c1`: the values for the inhibition in test [1], in test [2] and in test [3] were 11%, 43% and 54%, respectively.

With `O=C1/C(=C/c2c(O)cc(O)cc2O)Oc2c(O)cccc21`, the inhibition in test [1], in test [2] and in test [3] was less than 10% each time.

For `O=C1/C(=C/c2ccc(C3CCCCC3)cc2)Oc2cc(O)cc(O)c21`, the inhibition in test [1] was less than 10%; in test [2], less than 10%; in test [3], 16%.

Take `COc1cc(OC)c2c(c1)O/C(=C\c1ccc(F)cc1F)C2=O`: the inhibition in test [1] is less than 10%; in test [2], 32%; in test [3] it was 35%.

For `CCCCOc1ccc(/C=C2\Oc3cc(O)cc(O)c3C2=O)cc1`, the figures for the inhibition in test [1], in test [2] and in test [3] were less than 10%, 25% and 41%, respectively.

Take `O=C1/C(=C/c2ccc(O)cc2O)Oc2c1ccc(O)c2I`: the inhibition in test [1] was 13%; in test [2] it was 15%; in test [3] it was less than 10%.

As for `O=C1/C(=C/c2ccccc2O)Oc2cc(O)ccc21`, the inhibition in test [1], in test [2] and in test [3] was less than 10% throughout.

Regarding `CC(C)CCn1cc(/C=C2\Oc3cc(O)cc(O)c3C2=O)c2ccccc21`, the inhibition is less than 10% in test [1], 47.1% in test [2] and 18% in test [3].

In the case of `Cc1ccc(O)c(/C=C2\Oc3cc(O)cc(O)c3C2=O)c1`, the inhibition in test [1] was less than 10%; in test [2] it was 12%; in test [3], less than 10%.

On to `O=C(O)c1ccc(/C=C2\Oc3c(O)cccc3C2=O)cc1`, for which the inhibition was less than 10% in test [1], less than 10% in test [2] and 24% in test [3].

Turning to `Cn1cc(/C=C2\Oc3cccc(O)c3C2=O)c2cc(Br)ccc21`, the inhibition was less than 10% in test [1], 21.4% in test [2] and less than 10% in test [3].

As to `COc1ccc(/C=C2\Oc3cc(O)cc(O)c3C2=O)cc1OC`, the inhibition was less than 10% in test [1], 21% in test [2] and 23% in test [3].

In the case of `O=C1/C(=C/c2ccc(O)cc2O)Oc2c(O)cccc21`, the inhibition in test [1], in test [2] and in test [3] was less than 10% in each case.

As to `CN1CCN(c2ccc(/C=C3\Oc4cc(O)ccc4C3=O)cc2)CC1`, the values for the inhibition in test [1], in test [2] and in test [3] were less than 10%, 19% and less than 10%, respectively.

As to `O=C1/C(=C/c2ccc3ccccc3c2)Oc2c1ccc(O)c2O`, the values for the inhibition in test [1], in test [2] and in test [3] were less than 10%, 19% and 50%, respectively.

As for `O=C1/C(=C/c2ccc(O)cc2O)Oc2cc(O)ccc21`, the inhibition in test [1], in test [2] and in test [3] was less than 10% throughout.

With `COc1cc(O)ccc1/C=C1\Oc2cc(O)ccc2C1=O`, the inhibition in test [1] was less than 10%; in test [2], 13%; in test [3], less than 10%.

For the compound `O=C1/C(=C/c2ccccc2O)Oc2cc(O)cc(O)c21`, the figures for the inhibition in test [1], in test [2] and in test [3] were less than 10%, 14% and less than 10%, respectively.

With `COc1ccc(/C=C2\Oc3cc(O)cc(O)c3C2=O)c(OC)c1OC`, the inhibition is less than 10% in test [1], 20% in test [2] and 14% in test [3].

Turning to `CC[C@H](C)Cn1cc(/C=C2\Oc3cc(O)cc(O)c3C2=O)c2ccccc21`, the figures for the inhibition in test [1], in test [2] and in test [3] were less than 10%, 46% and 49%, respectively.

Turning to `CCCCn1cc(/C=C2\Oc3cc(O)cc(O)c3C2=O)c2cc(O)ccc21`, the inhibition in test [1] was less than 10%; in test [2], 30%; in test [3] it was less than 10%.

Consider `COc1ccc(/C=C2\Oc3cc(O)ccc3C2=O)c(OC)c1`, for which the inhibition in test [1] is less than 10%; in test [2], 17.9%; in test [3], 17%.

As for `Cn1cc(/C=C2\Oc3cc(O)ccc3C2=O)c2cc(Br)ccc21`, the inhibition in test [1] is less than 10%; in test [2] it was 39%; in test [3], 18%.

As for `O=C1/C(=C/c2ccc(O)cc2O)Oc2cc(O)cc(O)c21`, the inhibition in test [1] is less than 10%; in test [2], 14%; in test [3], less than 10%.

For `CN(C)c1ccc(/C=C2\Oc3cc(O)cc(O)c3C2=O)c(O)c1`, the values for the inhibition in test [1], in test [2] and in test [3] were less than 10%, 27% and 55%, respectively.

In the case of `COc1cc(OC)c2c(c1)O/C(=C\c1ccc(-c3cccs3)cc1)C2=O`, the inhibition in test [1] was less than 10%; in test [2] it was 24%; in test [3], 39%.

With `O=C1/C(=C/c2cn(Cc3ccc(Br)cc3)c3ccccc23)Oc2cc(O)cc(O)c21`, the inhibition was less than 10% in test [1], 22% in test [2] and 44% in test [3].

Turning to `COc1ccc(/C=C2\Oc3cc(OC)cc(OC)c3C2=O)c(OC)c1`, the inhibition in test [1], in test [2] and in test [3] was less than 10% in each case.

In the case of `O=C1/C(=C/c2ccc(-n3ccnc3)cc2)Oc2cc(O)cc(O)c21`, the values for the inhibition in test [1], in test [2] and in test [3] were less than 10%, 23% and 51%, respectively.

Regarding `COc1cc(OC)c2c(c1)O/C(=C\c1ccc(OC)c(OC)c1OC)C2=O`, the inhibition is less than 10% in test [1], 17% in test [2] and less than 10% in test [3].

Take `O=C1/C(=C/c2ccc(Cl)cc2)Oc2cc(O)cc(O)c21`: the values for the inhibition in test [1], in test [2] and in test [3] were less than 10%, 14% and 11%, respectively.

Consider `COc1ccc(/C=C2\Oc3c(ccc(O)c3O)C2=O)c(OC)c1`, for which the inhibition in test [1] was determined as 10.3%; in test [2], 28%; in test [3], 30%.

With `O=C1/C(=C/c2ccc(O)cc2O)Oc2ccccc21`, the inhibition in test [1], in test [2] and in test [3] was less than 10% in each case.

For the compound `O=C1/C(=C/c2ccc(O)c(O)c2)Oc2cccc(O)c21`, the inhibition in test [1] is less than 10%; in test [2], less than 10%; in test [3], 12%.

As for `CCCCc1ccc(/C=C2\Oc3c(ccc(O)c3O)C2=O)cc1`, the inhibition in test [1], in test [2] and in test [3] was less than 10% throughout.

As to `NCCN[C@H]1CC[C@@H](CC(=O)N[C@H]2Cc3cccc(C(=O)O)c3OB2O)CC1`, the inhibition is greater than 98% in test [1], 41% in test [2] and greater than 98% in test [3].

`COc1cc(/C=C2\Oc3cc(O)ccc3C2=O)ccc1O`: the inhibition in test [1] was 14%; in test [2], 13%; in test [3] it was less than 10%.

As to `O=C1/C(=C/c2c(O)cc(O)cc2O)Oc2cc(O)ccc21`, the inhibition in test [1], in test [2] and in test [3] was less than 10% each time.

In the case of `COc1ccc(/C=C2\Oc3ccccc3C2=O)c(OC)c1OC`, the inhibition in test [1], in test [2] and in test [3] was less than 10% each time.

Turning to `COc1cc(O)ccc1/C=C1\Oc2ccccc2C1=O`, the inhibition in test [1], in test [2] and in test [3] was less than 10% in each case.

With `CCc1ccc(/C=C2\Oc3cc(O)cc(O)c3C2=O)cc1`, the inhibition in test [1] was less than 10%; in test [2], 24.9%; in test [3] it was 55%.

The values are drawn from ChEMBL document CHEMBL5356995, “Aurones and derivatives as promising New Delhi metallo-β-lactamase (NDM-1) inhibitors” (Bioorg Med Chem, 2024).
